Reference: the METLIN SMRT retention time set (Domingo-Almenara et al. 2019)

Experiment: gradient 5% acetonitrile 3 min, to 50% in 2 min, to 85% in 15 min, held 3 min, 100 µL/min
Details: column: Zorbax Extend-C18 2.1 x 50 mm; eluents: water / acetonitrile, 0.1% formic acid
Method in brief: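 The system's dead and dwell volumes were 40 μL and 900 μL, with a Zorbax Extend-C18 column (2.1 × 50 mm, 1.8 μm) run at 100 μL/min in water and acetonitrile containing 0.1% formic acid each. Pure standards were analyzed in mixtures of ~100 molecules by HPLC–quadrupole time-of-flight mass spectrometry in positive and negative ionization mode. Retention time was assigned from computationally picked, manually inspected adduct peaks.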

Row | SMILES | RP-LC retention time [s]
1 | CN1c2ccc(F)cc2C(=O)NC12CCN(C(=O)c1ccc(F)c(F)c1)CC2 | 776
2 | Cc1cc(C)c(S(=O)(=O)N2CCCC2c2nc(-c3cccc(F)c3)no2)c(C)c1 (stereo not drawn) | 1270
3 | COCCC(=O)NC1CCN(C2=NS(=O)(=O)C(c3ccc(C(C)C)cc3)=C2C)CC1 | 813
4 | CC1(C)Cc2cccc(OCC(=O)NCCc3ccc(S(N)(=O)=O)cc3)c2O1 | 694
5 | CO[C@@H]1C=C2CCN(C)[C@@H]2C2c3cc4c(cc3C(=O)O[C@H]21)OCO4 (stereo partly drawn) | 636
6 | Cc1cc(-c2nnc(C3CC3)o2)c(C)n1CC(=O)Nc1ccc(N2CCOCC2)cc1 | 700
7 | COCCCNC(=O)C1CCN(Cc2cc3ccccc3n2Cc2ccccc2)CC1 | 684
8 | O=C(Cn1ccn2nc(-c3ccc(F)cc3)c(CO)c2c1=O)NCc1ccc2c(c1)OCO2 | 778
9 | O=C(Cc1cccnc1)N1CCCn2nc(-c3ccc(F)cc3)cc2C1 | 537
10 | Cn1nc(-c2nnc(-c3ccccc3F)o2)c2c1CCN(S(=O)(=O)c1ccc(C#N)cc1)C2 | 894
11 | O=c1ccn(-c2ccc(F)c(F)c2)nc1-c1nc(-c2cccc(F)c2)no1 | 923
12 | COc1cc(-c2nc3ncccn3c2Nc2ccc(C)c(Cl)c2)ccc1O | 704
13 | CC(C)Cc1ccc(S(=O)(=O)N(CC(=O)N2CCNCC2)CC2CCCO2)cc1 (stereo not drawn) | 703
14 | O=C(Nc1cc(C(F)(F)F)cc(C(F)(F)F)c1)Nc1c(Br)cc(Br)cc1-c1nn[nH]n1 | 1130
15 | Cc1ccc(N2C(=O)c3cccnc3C2CC(=O)N2CCN(c3ccccn3)CC2)cc1 (stereo not drawn) | 579
16 | O=C(NCCc1ccc(F)cc1)C1CC(=O)N(CCc2c[nH]c3ccc(Cl)cc23)C1 (stereo not drawn) | 830
17 | O=C(Cn1cccc1-c1nnc(-c2ccccc2)o1)NCc1ccc2c(c1)OCO2 | 860
18 | COc1ccc(NC(=O)Cn2nc3cc(C)nc(Nc4ccc(C)c(F)c4)n3c2=O)cc1 | 1040
19 | Cc1nc2nc(-c3ccc(C(C)(C)C)cc3)nn2c(C)c1CC(=O)N1CCN(C)CC1 | 682
20 | Cc1ccc(S(=O)(=O)c2cnc(N3CCN(c4ccccc4Cl)CC3)nc2N)cc1 | 1230
21 | O=C(c1ccc(Cl)c(Cl)c1)N1CCN(Cc2nncn2C2CCCCC2)CC1 | 708
22 | CC(C)CC(=O)N1CCc2c([nH]c3ccccc23)C12C(=O)N(C)c1ccccc12 (stereo not drawn) | 951
23 | CC(=O)N1CCc2sc(S(=O)(=O)N3CCN(c4ccccc4Cl)CC3)cc2C1 | 945
24 | CC(NS(=O)(=O)c1cc(-c2nc(C(C)(C)C)cs2)cs1)c1ccccc1 (stereo not drawn) | 1240

Row | SMILES | RP-LC retention time [s]
25 | O=C(N1CCC[C@H]1c1nc(-c2ccccc2)n[nH]1)C1(c2ccccc2)CC1 | 785
26 | O=C(Nc1c(C(=O)NCCc2ccccc2)[nH]c2ccc(F)cc12)c1ccccc1 | 998
27 | COc1ccc2c(c1)C1(CCN(S(=O)(=O)c3ccc(Br)cc3)C1)C(=O)N2 (stereo not drawn) | 881
28 | O=C(CN1CCCCC1c1nc(-c2cccc(F)c2)no1)Nc1ccc(F)cc1 (stereo not drawn) | 1130
29 | CCN1CCN(c2cc(-c3nc(-c4cccc(F)c4)no3)c3ccccc3n2)CC1 | 821
30 | CCN(CC)C(=O)c1ccc(-c2nc3cc(NS(=O)(=O)c4ccc(C)c(C)c4)ccc3n2C)cc1 | 726
31 | CCCNc1cc(N2CCC(CCC(=O)O)CC2)ncn1 | 600
32 | Cc1ccc(-c2nc3cccc(C)n3c2Nc2ccc3c(c2)OCCO3)cc1 | 710
33 | Fc1ccc(Nc2nc(-c3cccc(Cl)c3)cs2)nc1 | 1190
34 | Cn1c(=O)c(N2CCC(NC(=O)Nc3ccccc3)CC2)nc2ccccc21 | 829
35 | CCN(C(=O)C1CCCN1S(=O)(=O)c1cc2c(cc1Cl)NC(=O)CO2)c1ccccc1 (stereo not drawn) | 836
36 | CN1C2CCC1CC(OC(=O)C(CO)c1ccccc1)C2 (stereo not drawn) | 638
37 | CCCCN1CCC(F)(c2nc(-c3ccccc3)no2)CC1 | 691
38 | CCCN1C(=O)COc2cc(-c3noc(C(=O)NCC4CCCO4)n3)ccc21 (stereo not drawn) | 841
39 | Cc1ccc(C2Cn3nnc(C(=O)N4CCN(C(=O)c5ccco5)CC4)c3CO2)cc1 (stereo not drawn) | 844
40 | CCC(C)(C)NC(=O)Cn1nc(C)c2nn(-c3ccccc3)c(C)c2c1=O | 860
41 | CN1C2CC(OC(=O)C(CO)c3ccccc3)CC1C1OC12 (stereo not drawn) | 640
42 | CCC(C(=O)N1CCC(c2cc3n(n2)CCCNC3=O)CC1)c1ccccc1 (stereo not drawn) | 694
43 | CCCCN(C)C(=O)Cn1c(=O)c(S(=O)(=O)c2ccccc2)cc2cc(C)ccc21 | 953
44 | CCc1nc2nc3c(cn2n1)C(=O)CC(C)(C)C3 | 693
45 | Cc1nc2cc(-c3noc(C(C)Oc4cccc(Cl)c4)n3)ccc2n(C)c1=O (stereo not drawn) | 1110
46 | CN(C)c1nc(Nc2ccc3c(c2)OCO3)c2cnn(-c3ccccc3)c2n1 | 1220
47 | Cc1ccc2c(Nc3ccc4c(c3)OCCO4)c(C(=O)N3CCCC3)cnc2n1 | 592

Results, then the compound that gave them:

Row | RP-LC retention time [s] | SMILES
48 | 1230 | Cc1cccc(OCc2nc(C)c(C(=O)Nc3nc(-c4ccccc4)cs3)s2)c1
49 | 671 | COc1ccc(-c2nc3ccccn3c2Nc2ccc(Cl)cc2)cc1
50 | 847 | Cc1nnc(-c2cc(C)n(CC(=O)Nc3ccc(Br)cc3C)c2C)o1
51 | 886 | CCCCC(=O)N1CCCN(C2=NS(=O)(=O)C(c3ccc(C)c(C)c3)=C2C)CC1
52 | 629 | CCCn1cnc2cc(-c3noc(C(C)NC(=O)c4ccco4)n3)ccc21 (stereo not drawn)
53 | 574 | O=C(c1ccoc1)N1CCCC(Nc2ncnc3c2CCC3)C1 (stereo not drawn)
54 | 856 | CCOC(=O)CCC(=O)NCC1(c2ccc(OC)cc2)CCCC1
55 | 782 | CN(C)S(=O)(=O)N1CCCC(c2nc(-c3ccccc3)no2)CCNC(=O)CC1 (stereo not drawn)
56 | 686 | CCCCC(=O)N(C)CCc1noc(-c2ccc(C(=O)N3CCOCC3)cc2)n1
57 | 1130 | O=C1C2N=NN(Cc3nc(-c4cccc(Cl)c4)no3)C2C(=O)N1c1ccc2c(c1)CCC2 (stereo not drawn)
58 | 902 | COc1cccc(CNC(=O)Cn2c(=O)cc(-c3nc(C4CC4)no3)c3ccccc32)c1
59 | 983 | COC(=O)c1ccc2c(=O)n(-c3cc(OC)cc(OC)c3)c(N3CCSCC3)nc2c1
60 | 911 | CC(C)n1c(=O)oc2cc(-c3noc(CNC(=O)Cc4ccc(Cl)cc4)n3)ccc21
61 | 631 | CCNC(=O)NCCc1cn(CC(C)C)c2ncccc12
62 | 697 | CCc1nnc(-c2cc(NC(=O)C3CCN(C(C)=O)CC3)c(C)s2)o1
63 | 848 | CCN1C(=O)COc2ccc(-c3noc(-c4cccc(NC(C)=O)c4)n3)cc21
64 | 842 | O=C(NCc1ccsc1)C(=O)NCc1ccccc1Cl
65 | 666 | Cc1ccsc1C(=O)Nc1ccc(-c2nnc3n2CCCC3)cc1
66 | 679 | CCn1nc(C)c(-c2cc(C(=O)NCC3Cn4cccc4C(=O)N3C)no2)c1C (stereo not drawn)
67 | 771 | O=C(CCn1cnc2cc(-c3noc(-c4ccc(F)cc4)n3)ccc21)N1CCCC1
68 | 561 | CCCS(=O)(=O)N1CCC(N2C[C@H](OC)[C@@H]2c2cccnc2)CC1

Row | RP-LC retention time [s] | SMILES
69 | 850 | CCC(CC)C(=O)N1CCC2(CC1)C(=O)N(C)c1ccccc12
70 | 608 | Cc1cc(C)c2c(N3CCCCC3)nc(C(=O)N3CCOCC3)nc2n1
71 | 831 | CC(C)c1nc2nccc(-c3ccc(F)cc3)n2n1
72 | 767 | COc1ccc(CNC(=O)C2CCN(c3ccc(SCc4ccccc4)nn3)CC2)c(OC)c1
73 | 914 | Cc1nn(-c2ccc(F)cc2)c(C)c1S(=O)(=O)N1CCC(C(=O)N2CCCCC2)CC1
74 | 760 | O=C(c1nnc(-c2ccc(S(=O)(=O)N3CCCCC3)cc2)o1)N1CCCC1
75 | 711 | Cc1ccc2c(c1)C(O)(CC(=O)c1cccc(-n3cccc3)c1)C(=O)N2 (stereo not drawn)
76 | 675 | CN1C(=O)c2ccccc2Oc2ccc(C(=O)N3CCOCC3)cc21
77 | 1040 | O=c1ccn(-c2cccc(F)c2)nc1-c1nc(-c2ccc(F)c(Br)c2)no1
78 | 951 | CCc1nc2c(NC(=O)c3cccc(Br)c3)cccn2n1
79 | 707 | CCc1nc2cc3c(cc2n1CC(=O)Nc1ccc(Br)cc1)OCCO3
80 | 1040 | O=C(Cn1nc2c(SCc3ccc(Cl)cc3)nccn2c1=O)N1CCN(c2ccccc2)CC1
81 | 1090 | Cc1cccc(OCC(=O)Nc2nc(-c3ccccc3)cs2)c1
82 | 910 | CC(C)Cc1cc(-c2nn3c(Cc4ccccc4)nnc3s2)n[nH]1
83 | 597 | CCOC(=O)C1CCN(CC(O)COc2cc(C)cc(C)c2C)CC1 (stereo not drawn)
84 | 587 | COc1cccc(CN(C)C2CCc3nn(CC4CC4)c(=O)n3CC2)n1 (stereo not drawn)
85 | 526 | CONC(=O)Cc1csc(Nc2cc(C)ccn2)n1
86 | 771 | Cc1cccc(-c2nnc(C)c(N3CCC(C)CC3)n2)c1
87 | 1020 | COc1ccc(CNC(=O)c2nnc(-c3ccc(S(=O)(=O)N4CCC(C)CC4)cc3)o2)cc1
88 | 699 | COCCCNC(=O)C1CCCN(S(=O)(=O)c2cc(OC)ccc2OC)C1 (stereo not drawn)
